The values below come from patent publication US20070122341A1, “Benzylideneaniline derivatives and their radioisotope labeled compounds for binding and imaging of beta-amyloid plaques” (SEOUL NATIONAL UNIVERSITY INDUSTRY FOUNDATION, priority 2005, published 2007).

Molecules are shown by their SMILES. Where “and” joins values, the source holds several entries; their conditions need not be identical. Equal values may be shown once.

For one series, the target named is T1, Aβ1-40 aggregates (Homo sapiens, UniProt P05067).
T1 construct: purchased Sigma
T1 sequence (P05067 672-711): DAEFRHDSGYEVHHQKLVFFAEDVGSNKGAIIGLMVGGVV
Kind of series: In vitro binding assay with Aβ1-40 aggregates, inhibition of [125I]3'-I-BTA-1 binding. Conditions: for Ki: unlabeled compounds, Aβ1-40 aggregates 20 nM, [125I]3'-I-BTA-1 0.04 nM, 3 hr room temperature, Ki calculated from IC50; for affinity to Aβ1-40 (in words): conclusion from Ki values of Table 2. As for the experimental part:
Aggregated peptides were prepared using the solid form of peptides Aβ1-40 (purchased from Sigma) by a literature method (Klunk, W. E.; Wang, Y.; Huang, G-F.; Debnath, M. L.; Holt D. P.; Mathis, C. A. Uncharged thioflavin-T derivatives bind to amyloid-beta protein with high affinity and readily enter the brain. Life Sci. 2001, 69(13), […]). The aggregated Aβ1-40 peptide was aliquoted and stored at −70° C. Binding studies were performed according to the procedure described in the literature with some modifications (Zhuang, Z.-P.; Kung, M.-P.; Wilson, A.; Lee, C.-W.; Plossl, K.; Hou, C.; Holtzman, D. M.; Kung, H. F.; Structure-activity relationship of imidazo[1,2-a]pyridines as ligands for detecting β-amyloid plaques in the brain. J. Med. Chem. 2003; 46(2), 237-243). The Ki values of benzylideneaniline derivatives were evaluated with Aβ1-40 aggregates.
The reaction mixtures containing 100 μL of Aβ^1-40 aggregates (20 nM in the final mixture), 100 μL of benzylideneaniline derivatives (10^−5-10^−10 M in 50% ethanol), 100 μL of [^125I]3′-I-BTA-1 in 50% ethanol (0.04 nM in the final mixture), and 700 μL of phosphate buffered saline (pH=7.2) were incubated for 3 hr at room temperature, filtered through Whatman GF/B glass filters and washed twice with 3 mL of 10% EtOH. The filters were counted in a gamma-counter. Nonspecific binding was determined by reacting in the presence of 10 μM stilbene.

Series [1] can be described thus: Biodistribution in normal mice. In kind it is in vivo. The following applies: 18F-labeled compounds, tail vein injection, ICR male mice; ratio of brain uptake (% ID/g) at 2 min over 30 min. On the procedure: Biodistribution study of the ^18F-labeled compounds of Example 7 was performed with ICR male mice (weight range 27-28 g). 0.1 mL of a saline solution containing each ^18F-labeled benzylideneaniline compound A, B, C, D, E or F (37-74 kBq) was injected through the tail vein. The mice were sacrificed by decapitation at 2 min and 30 min time points post injection. The organs of interest, including blood, muscle, fat, heart, lung, liver, spleen, stomach, intestine, brain and bone, were separated and weighed, and the remaining radioactivity was counted with a NaI well counter.

The compound `COc1ccc(/N=C/c2ccc(F)cc2)cc1` [E, (4-fluorobenzylidene)-(4-methoxyphenyl)amine] came in with a melting point of 92 to 93 °C. Moreover, the Ki on Aβ1-40 aggregates was greater than 10000 nM. Besides, in series [1], the Brain uptake ratio was determined as 4.2 ± 0.9.
The compound `CNc1ccc(/N=C/c2ccc(F)cc2)cc1` [B, N-(4-fluorobenzylidene)-N′-methylbenzene-1,4-diamine] returned a melting point of 106 to 107 °C. Also, at Aβ1-40 aggregates, the “affinity to Aβ1-40 (in words)” value is listed as “have affinity to Aβ1-40” and the Ki is 1040 nM. For the same compound, the Brain uptake ratio in series [1] is recorded as 5.4 ± 0.5.
The like results for `CN(C)c1ccc(/N=C/c2ccc(F)cc2)cc1` [C, N-(4-fluorobenzylidene)-N′,N′-dimethylbenzene-1,4-diamine] were, in that order, 191 to 192 °C, “have affinity to Aβ1-40”, 149 nM and 2.9 ± 0.5.
The matching figures for `Nc1ccc(/N=C/c2ccc(F)cc2)cc1` [Compound A, N-(4-fluorobenzylidene)benzene-1,4-diamine]: 169 to 170 °C, “have affinity to Aβ1-40”, 304 nM and 8.7 ± 1.7.
`Oc1ccc(/N=C/c2ccc(F)cc2)cc1` [D]: the melting point fell in the range of 148 to 149 °C. In addition, at Aβ1-40 aggregates, the “affinity to Aβ1-40 (in words)” value was “low binging affinity” and the Ki is greater than 10000 nM. Moreover, the Brain uptake ratio in series [1] is 24.3 and 24.3 ± 4.6.
In the case of `O=C(O)c1cc(/N=C/c2ccc(F)cc2)ccc1O` [F, 5-[(4-fluorobenzylidene)amino]-2-hydroxybenzoic acid], at Aβ1-40 aggregates, the Ki is greater than 10000 nM. Further, the Brain uptake ratio in series [1] is listed as 11.0 ± 2.0.
